Measurements taken from article PMC5390258, “CMD-05, a novel promising clinical anti-diabetic drug candidate, in vivo and vitro studies” (Scientific Reports, 2017).

Legend:
LO-2 cells = test: Cytotoxicity in LO-2 cells (CCK-8); type: cell-based; settings: 1 × 10^−4 M, 12 h
Protocol: (§1) The toxicities of CMD-05 on HT22, 293 and […] cell lines was assessed using Cell Counting Kit-8 (CCK-8) (Biosharp, China). Briefly, the cells were plated on 96-well plates. […] The absorbance at 450 nm was measured using a microplate spectrophotometer.

NCI-H716 cells = test: GLP-1 secretion in NCI-H716 cells; type: cell-based, human; settings: 100 μM, 2 h; solvent group 6.6 ± 0.14 pmol/L
Protocol: Human enteroendocrine NCI-H716 cells were maintained in suspension culture as described by the American Type Culture Collection guideline (ATCC). Two days before the experiments, cells were seeded into 12-well culture plates coated with Matrigel at 1 × 10^6 cells per well. Cells were incubated in RPMI 1640 containing 10% FBS at 37 °C for 48 h. […] After incubated for 2 h, GLP-1 concentrations from the supernatants were measured by ELISA kits (YuanYe, China).

pancreatic islets = test: Morphologic observation on islet of model rats (HE, immunofluorescence, TEM); type: in vivo, rat
Protocol: HE staining on paraffin section was performed as described in reports. In brief, paraffin section were rinsed with PBS, fixed with 4% paraformaldehyde (PFA) for 30 min and then washed by PBS. The pancreas tissue were stained with Hematoxylin-Eosin, afterwards, they were dehydrated in alcohols. Morphological changes of the pancreas tissue were observed under an optical microscope (Olympus, Japan) after mounted by neutral resins.
Pancreas sections (8 μm) were cut in a cryostat and collected on superfrost microscope slides. The slides were stored at −20 °C till analysis. Immunofluorescent staining was used for detection of insulin (β cells) (1:100, Anti-Insulin antibody, Abcam), glucagon (α cells) (1:200, Anti-glucagon, Abcam). Briefly, the slides were blocked in 5% normal goat serum for 1 h in a humidified chamber. Slides were exposed to primary antibodies at a dilution of […] in antibody diluting solution at 4 °C overnight, washed in PBS, and exposed to appropriate secondary antibodies linked to the fluorescent probes (Goat Anti-Guinea pig IgG/FITC and Alexa Fluor 594-conjugated Goat Anti-Rabbit IgG) (Bioss and Proteintech, China) in antibody diluting solution for 1 h and DAPI (Beyotime, China) for 5 min in the dark. After washed by PBS, slides were mounted with a glycerol mounting medium. Images were collected using a fluorescent microscope (Nikon, Japan).
For transmission electron microscopy, about 1 mm^3 tissue specimens were obtained from the same pancreas region of the control and experimental groups of rats, and fixed overnight in 2% glutaraldehyde (pH7.3) in 0.1 M phosphate buffer saline at 4 °C. Images of pancreatic islets were captured from random tissue sections using a transmission electron microscope.

INS-1 cells = test: Proliferation of INS-1 cells (CCK-8); type: cell-based, rat; settings: 1 × 10^−4 and 3 × 10^−5 M, 24 h, CCK-8, vs DMSO
Protocol: The rat insulinoma cell line INS-1 (832/13) was obtained from the Department of endocrinology at 1st affiliated hospital of Chongqing medical university. Cells were cultured in RPMI 1640 (Gibco, USA) (11 mmol/l glucose, 100 units/ml penicillin, […] streptomycin, 10 mmol/l HEPES pH 7.4) supplemented with 10% FBS (Gibco, USA), 2 mmol/l L-glutamine, 1 mmol/l pyruvate, and 50 μmol/l β-mercaptoethanol. […] 10 μl of CCK-8 was then added and incubated at 37 °C and 5% CO2 for 1.5 h and […] (OD) was read at 460 nm with microplate reader. The OD value represents the proliferation activity.

Kunming mice = test: Acute toxicity in mice; type: in vivo
Protocol: For acute hypoglycemia test, male rats (150–250 g) were used. […].
Acute toxicological signs of included activities, nervous system response, autonomic nervous system response and death of mice were observed after a single oral dose of 2000 mg/kg.

plasma DPP-IV = target: T1, plasma DPP-IV (Rattus norvegicus, UniProt P14740); test: Plasma DPP-IV activity after single oral dose in fasting normal rats; type: in vivo; settings: single oral 4.5 mg/kg
T1 construct: from tissue; host or cells: plasma of Sprague-Dawley rats
Protocol: Oral glucose load, fasted and random blood samples was collected to measure DPP-IV activity at the 28th days, the 29th days and the last treatment of the CMD-05. DPP-IV enzyme assay was carried out according to a published method. The enzyme reaction was initiated by adding 5 mM Gly-Pro-AMC as a substrate. After 25 min of incubation, fluorescence of AMC released by the reaction was measured using a spectrofluorometer at an excitation wavelength of 353 nm and emission wavelength of 442 nm.
Blood samples were collected after administration of CMD-05 (4.5 mg/kg) at 15 min, 30 min, 1 h, 2 h, 4 h, 12 h, and 24 h to measure the DPP-IV activity in fasting normal rats, the concrete steps refer to the preceding.

TG, LDL-C = test: TG and LDL-C plasma levels in model rats; type: in vivo, rat
Protocol: To establish model of T2DM, male rats (80–100 g, 9-week-old)[49] were fed high fat diet (HFD) (20% sugar, 10% lard, 10% egg yolk and 60% basal feed) after a week of normal diet. After 4 weeks, rats were injected once with low-dose streptozotocin (Solarbio, China) (STZ, 30 mg/kg i.p) to induce partial insulin deficiency, and then continuously fed HFD for 4 weeks after injection of STZ. Then the model rats were oral administrated drugs for 30 days. The body weights were recorded once a week.
Oral glucose load, fasted and random blood samples were collected from rats on the 28th days, the 29th days and the last of the treatment of drugs, respectively. Plasma levels of insulin and GLP-1 were measured by ELISA kits (YuanYe, China) according to the manufacturer’s recommendation. The levels of HbA1c, Triglycerides (TG), total cholesterol (TC) and low density lipoprotein cholesterol (LDL-C) in blood samples were measured by commercial assay kits (JianCheng, Nanjing, China) according to the manufacturer’s directions.

293 cells = test: Cytotoxicity in 293 cells (CCK-8); type: cell-based; settings: 12 h
Protocol: as §1

T1 sequence (P14740 whole entry): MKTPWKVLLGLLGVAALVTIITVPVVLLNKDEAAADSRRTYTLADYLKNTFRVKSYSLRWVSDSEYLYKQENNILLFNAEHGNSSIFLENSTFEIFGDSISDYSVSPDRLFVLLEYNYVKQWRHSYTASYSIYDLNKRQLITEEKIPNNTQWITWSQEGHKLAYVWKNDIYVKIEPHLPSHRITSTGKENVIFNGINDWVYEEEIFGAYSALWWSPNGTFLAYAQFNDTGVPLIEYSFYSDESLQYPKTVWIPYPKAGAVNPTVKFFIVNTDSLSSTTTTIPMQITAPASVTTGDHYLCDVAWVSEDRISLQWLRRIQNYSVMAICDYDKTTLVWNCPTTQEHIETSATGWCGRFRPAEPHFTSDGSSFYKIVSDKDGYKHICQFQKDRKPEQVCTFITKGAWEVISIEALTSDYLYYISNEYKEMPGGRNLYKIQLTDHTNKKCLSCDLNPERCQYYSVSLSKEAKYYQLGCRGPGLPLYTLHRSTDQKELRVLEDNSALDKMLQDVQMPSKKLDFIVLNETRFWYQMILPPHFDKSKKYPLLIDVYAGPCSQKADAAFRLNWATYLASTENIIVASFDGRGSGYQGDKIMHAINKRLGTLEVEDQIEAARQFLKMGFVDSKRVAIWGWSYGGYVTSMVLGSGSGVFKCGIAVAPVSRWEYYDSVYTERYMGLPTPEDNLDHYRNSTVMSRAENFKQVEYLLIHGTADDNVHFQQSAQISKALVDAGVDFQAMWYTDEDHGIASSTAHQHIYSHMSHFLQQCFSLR

For `N#C[C@@H]1CCCN1C(=O)CN(C(=O)CCCCCl)C12CC3CC(CC(O)(C3)C1)C2` [CMD-05], the “cytotoxicity (cell viability)” value (LO-2 cells) was “no detectable toxic effect”, the GLP-1 secretion (NCI-H716 cells) was 7.5 ± 0.44 pmol/L and the “distribution of β cells (insulin/glucagon double staining)” value (pancreatic islets; 30 days treatment) was “obviously improved”. For the same molecule, the “mass of α-cells (insulin/glucagon double staining)” value (pancreatic islets; 30 days treatment) was “mildly reduced”, the “morphology of pancreatic islets (HE staining)” value (pancreatic islets; 30 days treatment) was “prevent islet from damage” and the “secretory granules in β cells (transmission electron microscopy)” value (pancreatic islets; compared with the model) was “obviously increased”. The “cells viabilities (proliferation) of INS-1 cells” value (INS-1 cells) was “increased”, the maximum tolerance dose (Kunming mice; oral) was > 2000 mg/kg and the acute toxicity signs (Kunming mice; single oral dose of 2000 mg/kg) was “no toxicological signs”. For the same molecule, the inhibition at 4.5 mg/kg (plasma DPP-IV; rat, at 4 hours after the dose, read-out: maximum inhibition of plasma DPP-IV activity) was ~90%, the “duration of plasma DPP-IV inhibition greater than 50%” value (plasma DPP-IV) was “at least 15 hours” and the “time of maximum inhibition of plasma DPP-IV activity” value (plasma DPP-IV) was 4 h. For the same molecule, the “reduction of LDL-C level” value (TG, LDL-C; 0.5 mg/kg) was 9%, the “reduction of TG level” value (TG, LDL-C; 0.5 mg/kg) was 22.41% and the “reduction of LDL-C level” value (TG, LDL-C; 1.5 mg/kg) was 12.60%. For the same molecule, the “reduction of TG level” value (TG, LDL-C; 1.5 mg/kg) was 37.07%, the “reduction of LDL-C level” value (TG, LDL-C; 4.5 mg/kg) was 17.91% and the “reduction of TG level” value (TG, LDL-C; 4.5 mg/kg) was 42.67%. For the same molecule, the plasma lipids levels (TG, LDL-C; 4.5 mg/kg continuously for 30 days) was “decreased to normal level”, the “cytotoxicity (cell viability)” value (293 cells; 1 × 10^−4 M) was “slightly reduced cell viability” and the “cytotoxicity (cell viability)” value (293 cells; 3 × 10^−6 to 1 × 10^−5 M) was “did not induce significant cytotoxicity”.
